Reference: patent US20180245061A1, “Modified Heterocyclase” (THE UNIVERSITY COURT OF THE UNIVERSITY OF ABERDEEN, priority 2014, published 2018)
Each block holds one molecule with its values, some of them ahead of it.

Columns and labels:
[1] = molecular target: Lyngbya sp. LynD heterocyclase, wild type, SEQ ID NO: 1; test: ITC nucleotide binding (ATP/AMP) to LynD; set-up: species or system Lyngbya sp. PCC 8106; conditions: 20° C., pH 7.4, 5 mM MgCl2, one-site model, stoichiometry set to 1, read-out: Nucleotide KD (ATP)
Method: (§1) Codon optimized full-length LynD (Lyngbya sp. PCC 8106) with an N-terminal TEV protease-cleavable His6-tag was purchased from DNA2.0 in the pJexpress411 plasmid. The protein was expressed in Escherichia coli BL21 (DE3) grown on auto-induction medium {Studier, 2005, Protein expression and purification, 41, 207-234} for 48 h at 20° C. Cells were harvested by centrifugation at 4,000×g, 4° C. for 15 min and re-suspended in lysis buffer (500 mM NaCl, 20 mM Tris pH 8.0, 20 mM imidazole and 3 mM β-mercaptoethanol (BME)) with the addition of complete EDTA-free protease inhibitor tablets (Roche) and 0.4 mg DNase g^−1 wet cells (Sigma). Cells were lysed by passage through a cell disruptor at 30 kPSI (Constant Systems Ltd) and the lysate was cleared by centrifugation at 40,000×g, 4° C. for 20 min. The cleared lysate was applied to a Nickel Sepharose 6 Fast Flow (GE Healthcare) column pre-washed with lysis buffer and protein eluted with 250 mM imidazole. The protein was then passed over a desalting column (Desalt 16/10, GE Healthcare) in 100 mM NaCl, 20 mM Tris pH 8.0, 20 mM imidazole, 3 mM BME. Tobacco etch virus (TEV) protease was added to the protein at a mass-to-mass ratio of 1:10 and the protein digested for 2 h at 20° C. to remove the Hiss-tag. However, removal of the Hiss-tag was not essential for activity and so less vigorous methods for purification may also be used. […]

[2] = molecular target: Lyngbya sp. LynD heterocyclase (SEQ ID NO: 1) variant K409A; test: ITC nucleotide binding (ATP/AMP) to LynD K409A; set-up: species or system Lyngbya sp. PCC 8106; conditions: 20° C., pH 7.4, 5 mM MgCl2
Method: as §1

[3] = molecular target: Lyngbya sp. LynD heterocyclase (SEQ ID NO: 1) variant E423R; test: ITC nucleotide binding (ATP/AMP) to LynD E423R; set-up: species or system Lyngbya sp. PCC 8106; conditions: 20° C., pH 7.4, 5 mM MgCl2
Method: as §1

[4] = molecular target: Lyngbya sp. LynD heterocyclase (SEQ ID NO: 1) variant R636E; test: ITC nucleotide binding (ATP/AMP) to LynD R636E; set-up: species or system Lyngbya sp. PCC 8106; conditions: 20° C., pH 7.4, 5 mM MgCl2
Method: as §1

[5] = molecular target: Lyngbya sp. LynD heterocyclase (SEQ ID NO: 1) variant R427E; test: ITC nucleotide binding (ATP/AMP) to LynD R427E; set-up: species or system Lyngbya sp. PCC 8106; conditions: 20° C., pH 7.4, 5 mM MgCl2
Method: as §1

[6] = molecular target: Lyngbya sp. LynD heterocyclase (SEQ ID NO: 1) variant K409E; test: ITC nucleotide binding (ATP/AMP) to LynD K409E; set-up: species or system Lyngbya sp. PCC 8106; conditions: 20° C., pH 7.4, 5 mM MgCl2
Method: as §1

[7] = system: ITACITACAYDGE; test: Heterocyclization of leaderless substrate peptide ITACITACAYDGE by fused-MicD/PatD enzymes (LC-ESI-MS, MALDI-TOF-MS, HPLC-ESI-MS); assay type: biochemical; conditions: 20-30 μM enzyme, 100-110 μM peptide, 5 mM ATP, 5 mM MgCl2, 27° C., 16 h
Method: The Reaction was performed in 100 mM Tris pH 8.0 supplemented with 150 mM NaCl, 5 mM ATP and 5 mM MgCl2 and contained 20 μM enzyme and 100 μM peptide. The mixture was incubated at 27° C. for 16 h. The unprocessed substrate has a molecular weight of 1329.5 Da.
Reaction was performed in 50 mM Bicine pH 9.0 supplemented with 150 mM NaCl, 5 mM ATP and 5 mM MgCl2 and contained 30 μM enzyme and 110 μM peptide. The mixture was incubated at 27° C. for 16 h. The unprocessed substrate has a molecular weight of 1219.5 Da.
Each reaction contained 100 mM Tris pH 8.0, 150 mM NaCl, 5 mM ATP and 5 mM MgCl2, 20 μM of the respective enzyme and 100 μM substrate peptide, and was incubated at 27° C. for 16 h. The unprocessed substrate has a molecular weight of 1329.5 Da.
Reaction was performed in 50 mM Bicine pH 9.0 supplemented with 150 mM NaCl, 5 mM ATP and 5 mM MgCl2 and contained 30 μM enzyme and 110 μM peptide. The mixture was incubated at 27° C. for 16 h. The unprocessed substrate has a molecular weight of 1329.5 Da.
Only 1 peak (9.254 min) indicates the reaction product is only one species. […] Multiple peaks of low intensity compared with m/z=1258.5 can be attributed to noise. Product was purified from the enzyme and ATP using size exclusion chromatography (Superdex 30, GE Healthcare) and exchanged into 50 mM Bicine pH 9.0, 500 mM NaCl and 5% DMSO.

Molecule: Nc1ncnc2c1ncn2[C@@H]1O[C@H](COP(=O)(O)OP(=O)(O)OP(=O)(O)O)[C@@H](O)[C@H]1O [ATP]
- Kd [1]: 50.2 µM
- Nucleotide KD (ATP) [2]: no binding
- Nucleotide KD (ATP) [3]: no binding
- Nucleotide KD (ATP) [4]: no binding
- Nucleotide KD (ATP) [5]: no binding
- Nucleotide KD (ATP) [6]: no binding

- heterocyclized species produced from ITACITACAYDGE [7]: no effect on heterocyclization
B1: MicD-R16-GLEAS-5GA: fused-MicD: leader from R16 extended by GLEAS prior to the GA linker (SEQ ID NO: 43) (protein)
chain: MSHHHHHHDYDENLYFQGSRLTAGQLSSQLAELSEEALGDAGLEASGAGAGAGAGAKLMQSTPLLQIQPHFHVEVIEPKQVYLLGEQANYALTGQLYCQILPLLDGQHSREQIVEKLDGEVPSEYIDYVLDRLAEKGYLTEAAPELSSEVAAFWSELGIAPPVAAEALRQSVTLTPVGNISEVTVAALTTALRDIGISVQTPTEAGSPTALNVVLTDDYLQPELAKINKQALESQQTWLLVKPVGSVLWLGPVFVPGKTGCWDCLAHRLRGNREVEASVLQQKQAQQQRNGQSGSVIGCLPTARATLPSTLQTGLQFAATEIAKWIVKHHVKATAPGTVFFPTLDGKIITFNHTVIDLKSHVLVRRSQCPSCGDRQILHRQGFEPVKLVSRRKHFTHDGGHRAFTPEQTVQKYQHLVSPITGVVTELVRLTDPANPLVHTYKAGHAFGSATTLRGLRNTLKYKSSGKGKTDIQSRASGLCEAIERYSGIFQGDEPRKRATLAELGDLALHPESLLYFSNTQYANREELNAQGSAAAYRWIPNRFDVSQAIDWTPVWSLTEQKHKYVPTAFCYYGYPLPEEQRFCKADSNGNAAGNTLEEAILQGFLELVERDSIAMWWYNRIRRPAVDLSTFDEPYFVDLQQFYQQQNRELWVLDVTADLGIPAFAGFSRRTVGTSERISIGFGAHLDPTIAILRALTEVSQVGLELDKIPDDKLDGESKDWMLNVTVENHPWLAPDPSVPMKTASDYPKRWSDDIHTDVMNCVKTAQTAGLEVMVLDQTRPDIGLNVVKVIIPGMRTFWTRFGQGRLYDIPVKLGWLDAPLAEEELNQTNIPF
modifications: Modified heterocyclase MicroD_R16_GLEAS_5GA

- heterocyclized species produced from ITACITACAYDGE [7]: 4
- heterocyclized species produced from ITACITACAYDGE ([7]; listed as MicD-Q21-9G): only a single four heterocycle species
B2: MicD-Q21-9GA: fused-MicD: leader from Q21, 9 GA repeats linker, KL, MicD (SEQ ID NO: 41) (protein)
chain: MSHHHHHHDYDENLYFQGSQLSSQLAELSEEALGDAGAGAGAGAGAGAGAGAGAKLMQSTPLLQIQPHFHVEVIEPKQVYLLGEQANYALTGQLYCQILPLLDGQHSREQIVEKLDGEVPSEYIDYVLDRLAEKGYLTEAAPELSSEVAAFWSELGIAPPVAAEALRQSVTLTPVGNISEVTVAALTTALRDIGISVQTPTEAGSPTALNVVLTDDYLQPELAKINKQALESQQTWLLVKPVGSVLWLGPVFVPGKTGCWDCLAHRLRGNREVEASVLQQKQAQQQRNGQSGSVIGCLPTARATLPSTLQTGLQFAATEIAKWIVKHHVKATAPGTVFFPTLDGKIITFNHTVIDLKSHVLVRRSQCPSCGDRQILHRQGFEPVKLVSRRKHFTHDGGHRAFTPEQTVQKYQHLVSPITGVVTELVRLTDPANPLVHTYKAGHAFGSATTLRGLRNTLKYKSSGKGKTDIQSRASGLCEAIERYSGIFQGDEPRKRATLAELGDLALHPESLLYFSNTQYANREELNAQGSAAAYRWIPNRFDVSQAIDWTPVWSLTEQKHKYVPTAFCYYGYPLPEEQRFCKADSNGNAAGNTLEEAILQGFLELVERDSIAMWWYNRIRRPAVDLSTFDEPYFVDLQQFYQQQNRELWVLDVTADLGIPAFAGFSRRTVGTSERISIGFGAHLDPTIAILRALTEVSQVGLELDKIPDDKLDGESKDWMLNVTVENHPWLAPDPSVPMKTASDYPKRWSDDIHTDVMNCVKTAQTAGLEVMVLDQTRPDIGLNVVKVIIPGMRTFWTRFGQGRLYDIPVKLGWLDAPLAEEELNQTNIPF
modifications: Modified heterocyclase MicroD_Q21_9GA
